These results are taken from patent US9492382B2, “Hyperbranched polyester having a hydrophobic core for solubilizing active ingredients of low solubility” (BASF SE, priority 2009, dated 2016).

The term solubility denotes the dissolved amount per volume that the medium holds. Lower therefore signals a poorly soluble substance.

This data set is described as follows: physchem. Conditions: pH 7, aqueous buffer, thermodynamic from solid. How it is done: 2 g of polymer were weighed out into a 50 ml glass beaker. Then 0.2 g of each active ingredient was weighed out into the batch to give a supersaturated solution. […] The mixture was then stirred at room temperature for 72 hours, using a magnetic stirrer. After a rest time of one hour, excess (i.e., unsolubilized) active ingredient was removed by filtration. The resulting clear or opaque solution was then analyzed for its active ingredient content by means of UV spectroscopy or HPLC.
The results are compiled in tables 2 and 3.

Molecules are shown by their SMILES. Where only a bound is given, the exact number is not on record here.

For the compound `Clc1ccccc1C(c1ccccc1)(c1ccccc1)n1ccnc1` [Clotrimazole], the solubility at 72 h is below 100 µg/mL.
